According to US11718642B2, “Compositions and methods for treating CNS disorders” (Sage Therapeutics, Inc., priority 2018, dated 2023):

Biological target: GABAA receptor
Experiment: Steroid inhibition of [35S]-TBPS binding, rat brain cortical membranes
Conditions: Table I-1, 3 nM [35S]-TBPS, in the presence of 5 mM GABA
Description: [^35S]-t-Butylbicyclophosphorothionate (TBPS) binding assays using rat brain cortical […] membranes in the presence of 5 mM GABA has been described (Gee et al, J. Pharmacol. Exp. Ther. 1987, 241, 346-353; Hawkinson et al, Mol. Pharmacol. 1994, 46, 977-985; Lewin, A. H et al., Mol. Pharmacol. 1989, 35, 189-194).
Briefly, cortices are rapidly removed following decapitation of carbon dioxide-anesthetized Sprague-Dawley rats (200-250 g). The cortices are homogenized in 10 volumes of ice-cold 0.32 M sucrose using a glass/teflon homogenizer and centrifuged at 1500×g for 10 min at 4° C. The resultant supernatants are centrifuged at 10,000×g for 20 min at 4° C. to obtain the P2 pellets. The P2 pellets are resuspended in 200 mM NaC/50 mM Na—K phosphate pH 7.4 buffer and centrifuged at 10,000×g for 10 min at 4° C. This washing procedure is repeated twice and the pellets are resuspended in 10 volumes of buffer. Aliquots ([…]) of the membrane suspensions are incubated with 3 nM [^35S]-TBPS and […] aliquots of test drug dissolved in dimethyl sulfoxide (DMSO) (final 0.5%) in the presence of 5 mM GABA. The incubation is brought to a final volume of 1.0 mL with buffer. Nonspecific binding is determined in the presence of […] unlabeled TBPS and ranged from 15 to 25%. Following a 90 min incubation at room temp, the assays are terminated by filtration through glass fiber filters (Schleicher and Schuell No. 32) using a cell harvester (Brandel) and rinsed three times with ice-cold buffer. Filter bound radioactivity is measured by liquid scintillation spectrometry. Non-linear curve fitting of the overall data for each drug averaged for each concentration is done using Prism (GraphPad). […] The concentration of test compound producing 50% inhibition (IC50) of specific binding and the maximal extent of inhibition (Imax) are determined for the individual experiments with the same model used for the overall data and then the means±SEM.s of the individual experiments are calculated.
Various compounds are or can be screened to determine their potential as modulators of [35S]-TBPS binding in vitro. These assays are or can be performed in accordance with the above.

Structure (SMILES)	IC50 [nM]
CC(=O)[C@H]1CC[C@H]2[C@@H]3COC4C[C@](C)(O)CC[C@@H]4[C@H]3CC[C@]12C (stereo in doubt) [I-A15, 1-((1S,3aS,3bR,5aS,7R,9aR,9bS,11aS)-7-hydroxy-7,11a-dimethylhexadecahydroindeno[4,5-c]chromen-1-yl)ethan-1-one]	1000 to 10000
C[C@@]1(O)CC[C@@H]2[C@H]3CC[C@]4(C)[C@@H](C(=O)Cn5cc(C#N)cn5)CC[C@H]4[C@@H]3CO[C@@H]2C1 [I-A17, 1-(2-((1S,3aS,3bR,5aS,7R,9aR,9bS,1aS)-7-hydroxy-7,11a-dimethylhexadecahydroindeno[4,5-c]chromen-1-yl)-2-oxoethyl)-1H-pyrazole-4-carbonitrile]	1000 to 10000

Same assay, conditions: Table II-2, 3 nM [35S]-TBPS, in the presence of 5 mM GABA

Structure (SMILES)	IC50 [nM]
CC(=O)[C@H]1COC[C@H]2[C@@H]3CC[C@@H]4C[C@](C)(O)CC[C@@H]4[C@H]3CC[C@]12C [II-B12, 1-((1R,4aS,4bR,6aR,8R,10aS,10bR,12aS)-8-hydroxy-8,12a-dimethylhexadecahydro-2H-naphtho[1,2-h]isochromen-1-yl)ethan-1-one]	100 to 1000
CC(=O)[C@H]1OC[C@H]2[C@@H]3CC[C@@H]4C[C@](C)(O)CC[C@@H]4[C@H]3CC[C@]12C [II-A11b, 1-((1S,3aS,3bR,5aR,7R,9aS,9bR,11aS)-7-hydroxy-7,11a-dimethylhexadecahydrophenanthro[1,2-c]furan-1-yl)ethan-1-one]	≥ 10000
C[C@@]1(O)CC[C@H]2[C@H](CC[C@@H]3[C@@H]2CC[C@]2(C)[C@@H](C(=O)Cn4cc(C#N)cn4)OC[C@@H]32)C1 [II-A13b, 1-(2-((1S,3aS,3bR,5aR,7R,9aS,9bR,11aS)-7-hydroxy-7,11a-dimethylhexadecahydrophenanthro[1,2-c]furan-1-yl)-2-oxoethyl)-1H-pyrazole-4-carbonitrile]	1000 to 10000
C[C@@]1(O)CC[C@H]2[C@H](CC[C@@H]3[C@@H]2CC[C@]2(C)[C@@H](C(=O)Cn4cc(C#N)cn4)COC[C@@H]32)C1 [II-B14, 1-(2-((1R,4aS,4bR,6aR,8R,10aS,10bR,12aS)-8-hydroxy-8,12a-dimethylhexadecahydro-2H-naphtho[1,2-h]isochromen-1-yl)-2-oxoethyl)-1H-pyrazole-4-carbonitrile]	100 to 1000
